Source: patent US6555733B2, “Genes coding for amino acid deacetylases with specificity for N-acetyl-L-phosphinothricin, their isolation and use” (priority 1996, dated 2003)

Legend:
[1] = tested on: leaves of tobacco plants (35S promoter-deac1 transformants, nontransgenic controls); experiment: Drop experiment on leaves of pPCVKDEAC1 tobacco plants and nontransgenic control plants; type: in vivo, Nicotiana tabacum; set-up: key to Drop experiment, leaf symptoms: +++: severe necrosis; ++: marked damage; +: slight lightening; −: no symptoms
Excerpt: The deac1 structural gene was recloned as a 1.4 kb BamHI/SalI PCT fragment into the binary vector pPCV801 (Koncz and Schell, 1986, Mol. Gen. Genet. 204: 383-396) under control of the 35S promoter. The resulting plasmid pPCVKDEAC1 (FIG. 2) with the expression vector 35S promoter-deac1-structural gene-35S terminator was transformed in Agrobacterium tumefaciens (strain ATHV) using standard methods. Pieces of tobacco leaf (Nicotiana tabacum) were transformed with the recombinant Agrobacteria according to the method of Horsch et al., 1985, Science 227: 1229-1231 and selected on kanamycin medium, 18 independent tobacco transformants were regenerated and tested for expression of the deacetylase in the leaves. In the case of activity of the protein in the transgenic plants, a sensitivity of the leaves to N-acetyl-PPT was to be expected, because the substance in the plant is then converted into the herbicidal active compound phosphinothricin on account of the enzymatic activity of the deacetylase.
In a drop experiment, the leaves of the transgenic plants and of a number of nontransgenic control plants were treated with 5 μl each of the following concentrations of N-acetyl-D,L-PPT: 4 mg/ml(=15 mM), 1 mg/ml(=3.75 mM), 0.4 mg/ml(=1.5 mM), 0.1 mg/ml(=0.38 mM). The treatment sites were examined for lightening or necrosis formation after 1-2 weeks. Simultaneously, the N-acetyl-PPT-specific deacetylase activity of the transformants, and also of the control plants, was measured in crude extracts. To do this, 100 mg each of leaf material were homogenized in 200 μl of PBS buffer, the cell debris was centrifuged off and the protein-containing supernatants were dialyzed overnight at 4° C. against the same buffer. 10 μl each of these samples were incubated with 0.1 mM [^14C]-N-acetyl-L-PPT overnight at 37° C. The batches were then analyzed in the HPLC, as described above, for formation of [^14C]-L-PPT.

[2] = tested on: flower buds of tobacco plants (tap1 promoter-deac1 transformants, NT Sam NN controls); experiment: Flower bud treatment, induced male sterility in pPCVTDEAC1 tobacco plants; type: in vivo, Nicotiana tabacum
Excerpt: Using standard methods, the tapetum-specific promoter of the tap1 gene from snapdragon (Antirrhinum majus) was fused in the vector pUC18 as a 2.2 kb EcoRI/BamHI fragment with the deac1 structural gene (1.4 kb BamHI/SalI-PCR fragment) and the 35S terminator. The expression cassette tap1 promoter-deac structural gene-35S terminator thus resulting was cloned into the binary vector pPCV801 as a 3.8 kb EcoRI fragment instead of the 35S promoter/terminator region (plasmid pPCVTDEAC1, FIG. 3). The transformation of tobacco was carried out as described in Example 4.
In the case of tapetum-specific expression of the deacetylase, it should be possible by treatment of the flower buds with N-acetyl-PPT to induce male-sterile flowers. The conversion of the PPT derivative into the herbicidal active compound phosphinothricin leads to selective damage to the tapetum tissue, by means of which the development of functional pollen is prevented.
In each case only one side of the inflorescences (the total area of the developing flower buds) was treated with N-acetyl-PPT, the other side of the influorescences remained untreated in order to ensure that the phenomena to be observed are not to be attributed to deformities of the respective plants. The treatment was carried out at a time at which the individual buds were not larger than 5 mm (active phase for tapetum promoter). The tobacco transformants and also a number of NT Sam NN control plants were treated 3× with 0.2% N-acetyl-D,L-PPT(=7.5 mM)/0.1% Genapol (wetting agent) within one week. After the blooming of the buds (about 9-11 days after conclusion of the treatment), the plants were investigated for the occurrence of male-sterile flowers.

[3] = tested on: N-acetyl-PPT deacetylase (Deac1 protein); experiment: Radioactive test of purified N-acetyl-PPT deacetylase (Deac1) with [14C]-N-acetyl-L-PPT, HPLC; type: biochemical, Stenotrophomonas sp.; conditions: for Km: substrate [14C]-N-acetyl-L-PPT 0.01-1 mM, pH=8.0, 1 mM CoCl2, 3-fold determinations; for Spec. activity: substrate [14C]-N-acetyl-L-PPT
[4] = tested on: N-acetyl-PPT deacetylase (Deac1 protein); experiment: Nonradioactive test, substrate specificity of purified deacetylase (amino acid analyzer); type: biochemical, Stenotrophomonas sp.; conditions: 25 mM substrate; for Rel. activity: 60 min, 28 °C, 5 μg enzyme, hippuric acid set equal to 100%
Procedure: (2) Nonradioactive test: To investigate the substrate specificity, 5 μg each of purified enzyme were incubated for 60 min. at 28° C. in 20 μl batches in PBS buffer with, in each case, 25 mM of a certain N-acetyl- or N-acylamino acid. The samples were then measured in an amino acid analyzer (Biotronic LC 5001) for formation of the free amino acids. The specific activities were determined in [nmol of amino acid/min/mg of protein]. For the N-acetyl-PPT deacetylase, a pH optimum of pH=8 (see Tab. 1) and a temperature optimum of 37° C. (see Tab. 2) were determined. […] By addition of 1 mM CoCl2, the enzyme activity could be increased by about 20%.

Q: For `CC(=O)NC(CCP(C)(=O)O)C(=O)O` (racemic) [N-acetyl-D,L-PPT, N-acetylphosphinothricin], which “Drop experiment, leaf symptoms” value ([1]; Control plant, 0.1 mg/ml) is on record?
A: −

Q: What about the “Drop experiment, leaf symptoms” value ([1]; Control plant, 0.4 mg/ml) of the same molecule?
A: −

Q: And the “Drop experiment, leaf symptoms” value ([1]; Control plant, 1 mg/ml)?
A: −

Q: What about the “Drop experiment, leaf symptoms” value ([1]; Control plant, 4 mg/ml, 5 μl, after 1-2 weeks) of the same molecule?
A: −

Q: And the “concentration to which leaves still react sensitively” value ([1]; constitutive expression of the deac gene, greenhouse plants (=0.2 mg/ml of L-enantiomer))?
A: 0.4 mg/mL

Q: And the “Drop experiment, leaf symptoms” value ([1]; plant pPCVK9, 0.1 mg/ml)?
A: −

Q: What about the “Drop experiment, leaf symptoms” value ([1]; plant pPCVK9, 0.4 mg/ml) of the same molecule?
A: −

Q: And the “Drop experiment, leaf symptoms” value ([1]; plant pPCVK9, 1 mg/ml)?
A: +

Q: And the “Drop experiment, leaf symptoms” value ([1]; plant pPCVK9, 4 mg/ml)?
A: +++

Q: And the “Drop experiment, leaf symptoms” value ([1]; plant pPCVK14, 0.1 mg/ml)?
A: −

Q: What about the “Drop experiment, leaf symptoms” value ([1]; plant pPCVK14, 0.4 mg/ml) of the same molecule?
A: −

Q: What about the “Drop experiment, leaf symptoms” value ([1]; plant pPCVK14, 1 mg/ml) of the same molecule?
A: +

Q: What about the “Drop experiment, leaf symptoms” value ([1]; plant pPCVK14, 4 mg/ml) of the same molecule?
A: +

Q: What about the “Drop experiment, leaf symptoms” value ([1]; plant pPCVK15, 0.1 mg/ml) of the same molecule?
A: −

Q: What about the “Drop experiment, leaf symptoms” value ([1]; plant pPCVK15, 0.4 mg/ml) of the same molecule?
A: +

Q: And the “Drop experiment, leaf symptoms” value ([1]; plant pPCVK15, 1 mg/ml)?
A: +

Q: What about the “Drop experiment, leaf symptoms” value ([1]; plant pPCVK15, 4 mg/ml) of the same molecule?
A: ++

Q: And the “Drop experiment, leaf symptoms” value ([1]; plant pPCVK16, 0.1 mg/ml)?
A: −

Q: What about the “Drop experiment, leaf symptoms” value ([1]; plant pPCVK16, 0.4 mg/ml) of the same molecule?
A: −

Q: And the “Drop experiment, leaf symptoms” value ([1]; plant pPCVK16, 1 mg/ml)?
A: +

Q: What about the “Drop experiment, leaf symptoms” value ([1]; plant pPCVK16, 4 mg/ml) of the same molecule?
A: +

Q: What about the “Drop experiment, leaf symptoms” value ([1]; plant pPCVK17, 0.1 mg/ml) of the same molecule?
A: −

Q: What about the “Drop experiment, leaf symptoms” value ([1]; plant pPCVK17, 0.4 mg/ml) of the same molecule?
A: −

Q: And the “Drop experiment, leaf symptoms” value ([1]; plant pPCVK17, 1 mg/ml)?
A: +

Q: What about the “Drop experiment, leaf symptoms” value ([1]; plant pPCVK17, 4 mg/ml) of the same molecule?
A: +

Q: And the “Number of sterile or pollen-reduced flowers, treated” value ([2]; Control plant, 3x 0.2% N-acetyl-D,L-PPT/0.1% Genapol within one week)?
A: 0

Q: What about the “Number of sterile or pollen-reduced flowers, treated” value ([2]; plant pPCT16) of the same molecule?
A: 10

Q: And the “Number of sterile or pollen-reduced flowers, treated” value ([2]; plant pPCVT14)?
A: 18

Q: And the “Number of sterile or pollen-reduced flowers, treated” value ([2]; plant pPCVT15)?
A: 0

Q: And the “induction of male-sterile flowers (in words)” value ([2]; tapetum-specific expression, buds treated with 2 mg/ml (=1 mg/ml of L-enantiomer), greenhouse plants)?
A: induction of male-sterile flowers was achieved

Q: How did the “increase of enzyme activity” value [3] turn out when `[Cl-].[Cl-].[Co+2]` [CoCl2] was run?
A: about 20%

Q: `O=C(O)CNC(=O)c1ccccc1` [Hippuric acid, N-benzoylglycine] was tested. Which “conversion by the deacetylase (in words)” value [4] did it give?
A: highest conversions

Q: What about the Rel. activity [4] of the same molecule?
A: 100%

Q: What does the source list for `CC(=O)N[C@@H](CCC(=O)O)C(=O)O` [N-Ac-glutamic acid, N-acetyl-L-glutamate]?
A: conversion by the deacetylase (in words) [4]: highest conversions; Rel. activity [4]: 100%

Q: Which Rel. activity [4] does the source give for `CC(=O)N[C@@H](CCC(N)=O)C(=O)O` [N-Ac-glutamine] here?
A: 30%

Q: `CC(=O)NCC(=O)O` [N-Ac-glycine] was tested. Which Rel. activity [4] did it give?
A: 59%

Q: `CC(=O)N[C@@H](Cc1cnc[nH]1)C(=O)O` [N-Ac-histidine] was tested. Which Rel. activity [4] did it give?
A: 43%

Q: With `CC(=O)N[C@@H](CC(C)C)C(=O)O` [N-Ac-leucine] as the molecule, how does the Rel. activity [4] read?
A: 33%

Q: Which Rel. activity [4] does the source give for `CSCCC(NC(C)=O)C(=O)O` (stereo not drawn) [N-Ac-methionine] here?
A: 0%

Q: For `CC(=O)N[C@@H](CCCN)C(=O)O` [N-Ac-ornithine], which Rel. activity [4] is on record?
A: 37%

Q: `CC(=O)NC(Cc1ccccc1)C(=O)O` (stereo not drawn) [N-Ac-phenylalanine] was tested. Which Rel. activity [4] did it give?
A: 24%

Q: With `CC(=O)N1CCCC1C(=O)O` (stereo not drawn) [N-Ac-proline] as the molecule, how does the Rel. activity [4] read?
A: 0%

Q: For `CC(=O)NC(CO)C(=O)O` (stereo not drawn) [N-Ac-serine], which Rel. activity [4] is on record?
A: 4%

Q: `CC(=O)NC(Cc1c[nH]c2ccccc12)C(=O)O` (stereo not drawn) [N-Ac-tryptophan] was tested. Which Rel. activity [4] did it give?
A: 0.4%

Q: `CC(=O)N[C@@H](Cc1ccc(O)cc1)C(=O)O` [N-Ac-tyrosine] was tested. Which Rel. activity [4] did it give?
A: 11%

Q: `CC(=O)N[C@H](C(=O)O)C(C)C` [N-Ac-valine] was tested. Which Rel. activity [4] did it give?
A: 2%

Q: How did the Km [3] turn out when `CC(=O)N[C@@H](CCP(C)(=O)O)C(=O)O` [N-acetyl-L-PPT, N-acetyl-L-phosphinothricin] was run?
A: 670 µM

Q: And the “affinity below that for hippuric acid and N-acetyl-L-glutamate” value [4]?
A: approximately 50%

Q: And the Rel. activity [4]?
A: 43%

B1: N-acetyl-PPT deacetylase: deacetylase from Stenotrophomonas sp., 454 amino acids (SEQ ID NO:2), purified from E. coli as GST fusion cleavage product (protein)
chain: MIRKTVLLTALSCALASATATAAEGQRPEVEAAAARLQRQVVEWRRDFHQHPELSNREVRTAAKVAERLRAMGLQPQTGVAVHGVVAIIKGALPGPKIALRADMDALPVTEQTGLPFASTATAEYRGEKVGVMHACGHDAHTATLLGVADALVAMRDTLPGEVMLIFQPAEEGAPPPEQGGAELMLKEGLFKEFKPEAVFGLHVFSSVQAGQIAVRGGPLMAASDRFAITVNGRQTHGSAPWNGIDPIVAASDLIGTAQTIVSRRANLSKQPAVLTFGAIKGGIRYNIIPDSVEMVGTIRTFDPDMRKQIFADLRNVAEHTAAAHGATATTDIYEKDGNPATVNDPALTARMLPSLQAVVGKDNVYEPPLQMGSEDFSLYAQQVPAMFFFVGSTGAGIDPATAPSNHSPKFLLDEKALDVGLRALLQVSLDYLHGGKAG
modifications: Stenotrophomonas sp
Q: With B1 as the molecule, how does the Spec. activity ([3]; 28 °C) read?
A: 9.6 nmol/min/mg of protein

Q: And the Spec. activity ([3]; 37 °C)?
A: 16.8 nmol/min/mg of protein

Q: And the Spec. activity ([3]; 50 °C)?
A: 14.9 nmol/min/mg of protein

Q: And the Spec. activity ([3]; 60 °C)?
A: 4.3 nmol/min/mg of protein

Q: What about the Spec. activity ([3]; pH 6) of the same molecule?
A: 2.4 mol/min/mg of protein

Q: What about the Spec. activity ([3]; pH 8) of the same molecule?
A: 12.0 mol/min/mg of protein

Q: And the Km [3]?
A: 670 µM
